SMILES strings stand for the structures.

For experiment [1], the system named is Δ^5 -lipoxygenase (5-LO) pathway, LTB4 formation in rat peritoneal macrophages. Kind of experiment: Rat peritoneal macrophage assay, in vitro: LTB4 formation (5-LO pathway). It is filed as cell-based. To be noted: stimulated with calcium ionophore A 23187 (5×10^-7 M), LTB4 by radioimmunoassay. The source says: (§1) RAT PERITONEAL MACROPHAGE ASSAY, IN VITRO
(§2) The rat peritoneal macrophage assay measures the ability of a test compound to influence the release of arachidonic acid (AA) from phospholipid stores in the plasma membrane and the subsequent metabolism of AA by the Δ^5 -lipoxygenase (5-LO) and cyclooxygenase (CO) pathways to the final products excreted by the cells: leukotriene B4 (LTB4, from the 5-LO pathway) and prostaglandin E2 (PGE2, from the CO pathway).
(§3) Macrophages were obtained form rats by peritoneal lavaqe with phosphate buffered saline minus Ca^+2 and Mg^+2 (PBS). Cells were washed 3 times with PBS and resuspended in Delbecco's Modified Eagle medium (Gibco Laboratories) containing L-glutamine and D-glucose and supplemented with 10% fetal calf serum. Cells were counted on a Coulter ZBA cell counter and then resuspended to a concentration of 4×10^6 cells/mL. Three mL of the cell suspension were added to plastic culture dishes (3 cm), and then the cells were allowed to adhere for 90 minutes at 37° C. Dishes were washed 3 times with PBS to remove nonadherent cells. ^14 C-AA (ca. […]) were added to the cells (1 μCi/dish) and allowed to incorporate for 90 minutes. Unincorporated ^14 C-AA was removed and the cell layer was again washed 3 times with PBS. Test compounds were dissolved in DMSO and diluted in phosphate-buffered Hank's balanced salt solution to appropriate concentrations. Cells were incubated with test compounds or the solution used to dissolve the test compounds (control) for 30 minutes at 37° C. and were then stimulated with calcium ionophore A 23187 (5×10^-7 M) for 20 minutes. The extracellular fluid was removed and ^14 C radioactivity released into this fluid from AA metabolism was measured by liquid scintillation spectroscopy. The amounts of LTB4 and PGE2, were measured in the extracellular fluid by radioimmunoassay with specific antisera. The effect of a test compound or standard was calculated as a percent inhibition of the maximum effect produced in the presence of A 23187 and expressed as an inhibitory concentration 50% IC50).
(§4) This assay measures inhibition by the test compounds of the 5-LO and the CO pathways of AA metabolism and this inhibition is expressed as an IC50 for LTB4 and PGE2 formation respectively.

For experiment [2], the system named is cyclooxygenase (CO) pathway, PGE2 formation in rat peritoneal macrophages. Kind of experiment: Rat peritoneal macrophage assay, in vitro: PGE2 formation (CO pathway). It is filed as cell-based. The following applies: stimulated with calcium ionophore A 23187 (5×10^-7 M), PGE2 by radioimmunoassay.
Source text: as §1, §2, §3, §4

The test system of experiment [3] is rat peritoneal macrophages (^14 C-arachidonic acid release). Kind of experiment: Rat peritoneal macrophage assay, in vitro: ^14 C release from arachidonic acid metabolism. It is filed as cell-based. The following applies: stimulated with calcium ionophore A 23187 (5×10^-7 M), ^14 C released.
Source text: as §1, §2, §3, §4

Experiment [4] deals with Rat Acetic Acid Colitis Model. Kind of experiment: Acetic acid-induced colitis in rats, in vivo (myeloperoxidase accumulation). On the set-up: species or system rat (Sprague-Dawley). The source says:
ACETIC ACID-INDUCED COLITIS IN RATS, IN VIVO
The rat acetic acid induced colitis bioassay has been described by J. E. Krawisz, et al. in Amer. J. Proc. Gastro. Col. Rec. Surg. 31: 11-18 (1980), and by P. Sharon and W. F. Stenson in Gastroenterology 88: 55-63 (1985) and 86: 453-460 (1984). Acetic acid-induced colitis is characterized by the movement of inflammatory cells into the colon, with the number of such cells in the mucosa being measured by the activity of myeloperoxidase, a marker enzyme for these cells. Positive desirable activity is indicated by a reduction in the high levels of myeloperoxidase caused by acetic acid. Male rats (Sprague-Dawley), weighing 150 to 300g, were pretreated twice daily for two days with either the vehicle (water, or dimethylsulfoxide) or the test inhibitor compound suspended in water or dissolved in dimethylsulfoxide and orally administered. On the third day, the animals were dosed the same as on the previous two days, anesthetized with metofane, and 2 ml of 2.5% acetic acid was injected by syringe into the colonic lumen, followed immediately by 3 ml of air and a rinse consisting of 3 ml of phosphate-buffered saline (the acetic acid is present in the lumen for a sufficient period to cause inflammation without producing severe necrosis or irreversible damage). The animals were administered a second dose of the test compound in the same amount about 16 hours later. 24 hours after the acetic acid treatment, the animals were sacrificed, the colonic mucosa was surgically removed and homogenized in an aqueous buffer at pH 6 with a Tissumizer or similar device and myeloperoxidase was measured in the homogenate using o-phenylenediamine as a chromagen, as described by A. Voller, D. E. Bidwell and A. Bartlett in The Enzyme Linked Immunosorbent Assay (ELISA), Zoological Soc., London 1979, pages 29-30. Control animals were pretreated with the vehicle and saline in place of acetic acid.

The target of experiment [5] is T1, Δ^5 lipoxygenase from rat basophilic leukemia (RBL-1 cells) (Rattus norvegicus, UniProt P12527).
T1 construct: the resulting supernatant fraction was used as the source of Δ^5 -lipoxygenase; endogenous in cells; host or cells: RBL-1 rat basophilic leukemia cells (supernatant of the homogenate after 49,000 g)
T1 sequence (P12527 1-673): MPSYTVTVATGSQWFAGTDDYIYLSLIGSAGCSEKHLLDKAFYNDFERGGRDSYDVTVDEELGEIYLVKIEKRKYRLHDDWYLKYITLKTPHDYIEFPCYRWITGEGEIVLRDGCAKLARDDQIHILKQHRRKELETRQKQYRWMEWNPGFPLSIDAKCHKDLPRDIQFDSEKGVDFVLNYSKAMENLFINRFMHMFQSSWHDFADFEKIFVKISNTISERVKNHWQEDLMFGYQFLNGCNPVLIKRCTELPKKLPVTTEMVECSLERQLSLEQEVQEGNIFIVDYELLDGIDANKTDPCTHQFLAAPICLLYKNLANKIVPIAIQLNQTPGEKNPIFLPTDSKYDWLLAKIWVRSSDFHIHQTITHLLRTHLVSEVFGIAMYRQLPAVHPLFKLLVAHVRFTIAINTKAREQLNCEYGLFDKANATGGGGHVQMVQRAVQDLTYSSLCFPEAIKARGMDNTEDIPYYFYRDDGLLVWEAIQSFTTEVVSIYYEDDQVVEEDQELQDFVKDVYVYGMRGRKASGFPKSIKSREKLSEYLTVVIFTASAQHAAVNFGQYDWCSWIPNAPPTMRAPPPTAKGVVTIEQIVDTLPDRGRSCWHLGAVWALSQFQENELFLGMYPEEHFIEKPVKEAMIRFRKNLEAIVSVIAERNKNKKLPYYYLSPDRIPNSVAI
Kind of experiment: In vitro test for Δ^5-lipoxygenase inhibitors. It is filed as biochemical. To be noted: RBL-1 supernatant enzyme, 6.7 μM [1-^14 C]arachidonic acid, 10 min preincubation; read-out: IC50 value, Δ^5-lipoxygenase inhibition. How it is done:
IN VITRO TEST FOR Δ^5 -LIPOXYGENASE INHIBITORS
In this procedure a compound is tested for its effect on Δ^5 lipoxygenase from rat basophilic leukemia (RBL-1 cells). The activity of this enzyme was determined by measuring the catalytic conversion of [1-^14 C]arachidonic acid to [1-^14 C-5-hydroperoxy- 6,8,11,14-eicosatetraenoic acid ([1-^14 C]-5-HPETE) which leads to the formation of the 5-hydroxy derivative ([1-^14 C]-5-HETE). The Δ^5 -lipoxygenase was derived from the supernatant fraction of lysed RBL-1 cells using a modification of the method previously described by Jakschik and Lee [Nature 287,51 (1980)]. Briefly, RBL-1 cells were lysed by homogenization in ice-cold buffer (50 mM Tris-HCl buffer. PH 7.2, containing 1 mM EDTA and 14 μM indomethacin). The homogenate was centrifuged at 4° at 49,000 g for 20 minutes and the resulting supernatant fraction was used as the source of Δ^5 -lipoxygenase. […] The ethereal extract containing [1-^14 C]-5-HETE and unreacted substrate was analyzed by silica gel TLC using isooctanemethylethyl ketone-acetic acid (100:9:1) as the developing solvent. […] The effect of an inhibitor on Δ^5 -lipoxygenase activity is determined by preincubating the enzyme for 10 minutes at 30° in the presence or absence of various concentrations of the drug prior to addition of substrate. […]

Turning to `CC(C(=O)O)c1ccc2cc(OCCCCCCc3cccc(O)c3O)ccc2c1` (racemic) [(rac)-6-[6-(2,3-Dihydroxyphenyl)hexyloxy]-alpha-methyl-2-naphthalene-aceticacid], the results for the IC50 in experiment [1], in experiment [2] and in experiment [3] were 0.6 µM, 3 µM and 1 µM, respectively. Also, the “% Inhibition of Myeloperoxidase Accumulation” value (from here on “% Inhibition”) in experiment [4] (10 mg/kg po) amounted to 88 ± 17%.
Consider `O=C(O)c1ccc2cc(OCCCCCCc3cccc(O)c3O)ccc2c1` [6-[6-(2,3-Dihydroxyphenyl)hexyloxy]-2-naphthalenecarboxylic acid], for which the IC50 (usually the concentration at which inhibition is half-maximal) in experiment [1] worked out at 3 µM; in experiment [2] it was 9 µM; in experiment [3], 3 µM. Moreover, the “% Inhibition” value in experiment [4] (1 mg/kg po) came to 72 ± 8%.
In the case of `O=C(O)Cc1ccc2cc(OCCCCCCc3cccc(O)c3O)ccc2c1` [6-[6-(2,3-dihydroxyphenyl)hexyloxy]-2-naphthalene acetic acid], the IC50 in experiment [1] worked out at 0.9 µM; in experiment [2], 5 µM; in experiment [3] it was 3 µM. For the same compound, the “% Inhibition” value in experiment [4] (1 mg/kg po) came to 72 ± 8%.
`CCOC(=O)[C@@H](C)c1ccc2cc(OCCCCCCc3cccc(O)c3O)ccc2c1` [(S)-6-[6-(2,3-Dihydroxyphenyl)hexyloxy]-alpha-methyl-2-naphthaleneacetic acid ethyl ester]: the IC50 in experiment [1] amounted to 0.6 µM; in experiment [2] it was 4 µM; in experiment [3], 3 µM. In addition, the “% Inhibition” value in experiment [4] (10 mg/kg po) was 23 ± 5%.
For `C[C@H](C(=O)O)c1ccc2cc(OCCCCCCc3cccc(O)c3O)ccc2c1` [(S)-6-[6-(2,3-dihydroxyphenyl)hexyloxy]-alpha-methyl-2-naphthaleneacetic acid], the IC50 in experiment [1] worked out at 0.2 µM; in experiment [5] it was 0.012 µM; in experiment [2] it was 1 µM; in experiment [3], 0.9 µM. In experiment [4] (1 mg/kg po), the “% Inhibition” value is 90 ± 11%.
Regarding `C[C@H](C(=O)O)c1ccc2cc(OCCCCCCc3ccc(O)c(O)c3)ccc2c1` [(S)-6-[6-(3,4-dihydroxyphenyl)hexyloxy]-alpha-methyl-2-naphthaleneacetic acid], the IC50 came to 0.6 µM in experiment [1], 3 µM in experiment [2] and 1 µM in experiment [3]. Also, the “% Inhibition” value in experiment [4] (10 mg/kg po) came to 13 ± 2%.
